Data reported in US6344477B1, “Prostaglandin e agonists for treatment of dry eye” (Alcon Manufacturing, Ltd., priority 1998, dated 2002).

What was measured:
[1] = target: T1, EP2 Receptors in Immortalized Human Non-pigmented Ciliary Epithelial Cells (Homo sapiens, UniProt P43116); test: cAMP production (radioimmunoassay) via EP2 receptors in immortalized human non-pigmented ciliary epithelial cells; format: cell-based; details: for EC50: cAMP production, 15-60 min at 23° C., read-out: Potency (EC50, nM) at EP2 Receptors in Immortalized Human Non-pigmented Ciliary Epithelial Cells
T1 construct: Immortalized human non-pigmented ciliary epithelial cells (containing EP2 receptors); endogenous in cells; host or cells: immortalized human non-pigmented ciliary epithelial cells
Procedure: (§1) Immortalized human non-pigmented ciliary epithelial cells (containing EP2 receptors) and Chinese hamster ovary cells (containing EP4 receptors) were stimulated with various prostaglandins for 15-60 min at 23° C. The cAMP produced by receptor activation was determined by a specific radioimmunoassay as previously described (Sharif et. al., Pharmacological analysis of mast cell mediator and neurotransmitter receptors coupled to adenylate cyclase and phospholipase C on immunocytochemically-defined human conjunctival epithelial cells, J. Ocular Pharmacology & Therapeutics, 13:321-336 (1997); Crider et. al., Prostaglandin-stimulated adenylyl cyclase activity via a pharmacologically-defined EP2 receptor in human non-pigmented epithelial cells, J. Ocular Pharmacology & Therapeutics, 14:293-304 (1998); Crider et. al., Use of a semi-automated, robotic radioimmunoassay to measure cAMP generated by activation of DP-, EP2- and IP-prostaglandin receptors in human ocular and other cell-types, Prostaglandins, Leukotrienes & Fatty Acids, 59:77-82 (1998); Milne et. al., Human monocytes and cultured Chinese hamster ovary cells express EP4 receptors positively coupled to adenylate cyclase, Br. J. Pharmacology, 113 (supplement), 8p, (1994)).

[2] = target: T2, EP4 Receptors in Chinese Hamster Ovary Cells (Cricetulus griseus, UniProt A0A061ILF4); test: cAMP production (radioimmunoassay) via EP4 receptors in Chinese hamster ovary cells; format: cell-based; details: 15-60 min at 23° C.; for EC50: read-out: Potency (EC50, nM) at EP4 Receptors in Chinese Hamster Ovary Cells
T2 construct: Chinese hamster ovary cells (containing EP4 receptors); endogenous in cells; host or cells: Chinese hamster ovary cells
Procedure: as §1

T2 sequence (A0A061ILF4 1-488): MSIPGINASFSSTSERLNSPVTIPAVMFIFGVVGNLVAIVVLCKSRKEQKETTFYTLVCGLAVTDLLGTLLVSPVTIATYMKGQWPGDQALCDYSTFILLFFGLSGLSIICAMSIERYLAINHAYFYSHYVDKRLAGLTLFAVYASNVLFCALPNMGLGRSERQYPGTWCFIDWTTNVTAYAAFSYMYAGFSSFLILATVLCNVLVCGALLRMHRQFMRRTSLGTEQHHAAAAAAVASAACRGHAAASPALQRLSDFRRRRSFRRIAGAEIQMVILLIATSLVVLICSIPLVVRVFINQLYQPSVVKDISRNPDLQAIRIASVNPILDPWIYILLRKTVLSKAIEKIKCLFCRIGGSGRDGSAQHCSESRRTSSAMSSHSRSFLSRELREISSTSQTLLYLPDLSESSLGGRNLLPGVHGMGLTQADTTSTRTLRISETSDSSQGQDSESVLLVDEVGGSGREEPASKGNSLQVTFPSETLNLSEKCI
T1 sequence (P43116 whole entry): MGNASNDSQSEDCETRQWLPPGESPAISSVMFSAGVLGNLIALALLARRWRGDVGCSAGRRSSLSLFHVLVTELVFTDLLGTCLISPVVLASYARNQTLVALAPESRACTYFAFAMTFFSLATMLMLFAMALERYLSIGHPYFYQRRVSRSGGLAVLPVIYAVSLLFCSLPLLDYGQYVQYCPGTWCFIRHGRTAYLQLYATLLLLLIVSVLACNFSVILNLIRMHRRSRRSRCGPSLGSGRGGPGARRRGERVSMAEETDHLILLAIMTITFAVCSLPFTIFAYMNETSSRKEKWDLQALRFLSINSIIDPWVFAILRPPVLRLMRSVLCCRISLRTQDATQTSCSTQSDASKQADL

| Structure (SMILES) | EC50 [1] [nM] | EC50 [2] [nM] | Efficacy at EP4 Receptors in Chinese Hamster Ovary Cells [2] [%] | Receptor selectivity EP2 versus EP4 ([1]; comparison of EC50 at EP2 and EP4 receptors) |
| --- | --- | --- | --- | --- |
| CCCCC(C)(C)[C@H](O)/C=C/[C@H]1CCC(=O)[C@@H]1C/C=C\CCCC(=O)O [11-deoxy-16,16-dimethyl-PGE2, 11-deoxy-16,16,-dimethyl-PGE2] | 739 | 176 | – | – |
| CCCCC[C@H](O)/C=C/[C@H]1CCC(=O)[C@@H]1CCCCCCC(=O)O [11-deoxy-PGE1] | 500 | 38 | 86 | – |
| CCCCC(C)(C)[C@H](O)/C=C/[C@H]1[C@H](O)CC(=O)[C@@H]1C/C=C\CCCC(=O)O [16,16-dimethyl-PGE2] | 686 | 31 | – | – |
| CCCC1([C@H](O)C/C=C/[C@H]2[C@H](O)CC(=O)[C@@H]2CCCCCCC(=O)OC)CCC1 [Butaprost, reference compound] | 212 | > 10000 | – | more EP2-selective |
